Legend:
Assay in all cases: relative viability (nuclei count vs DMSO), 5 days (fraction); higher = more cells survive
CX-5461 + Trametinib = compound: Cc1cnc(CNC(=O)c2c(=O)c3ccc(N4CCCN(C)CC4)nc3n3c2sc2ccccc23)cn1 [CX-5461] + CC(=O)Nc1cccc(-n2c(=O)n(C3CC3)c(=O)c3c(Nc4ccc(I)cc4F)n(C)c(=O)c(C)c32)c1 [Trametinib] (partner 0.02 µM)
Method in brief: (§1)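 Relative viability divides the nuclei count in treated wells by that in vehicle wells. Lung cancer cell lines were seeded in 1536-well plates, dosed by pin tool the next day, and fixed and stained after 5 days in one step with final 0.05% Triton X-100, 1% formaldehyde and 1 ug/ml Hoechst. Dosing was a single drug or a fixed anchor-drug dose plus five library-drug doses (not always all listed) in √10 steps, and values are medians of duplicate plates imaged at 4×.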

CX-5461 + Dasatinib = compound: Cc1cnc(CNC(=O)c2c(=O)c3ccc(N4CCCN(C)CC4)nc3n3c2sc2ccccc23)cn1 [CX-5461] + Cc1nc(Nc2ncc(C(=O)Nc3c(C)cccc3Cl)s2)cc(N2CCN(CCO)CC2)n1 [Dasatinib] (partner 0.075 µM)
Method in brief: as §1

IMD-0354 + OSI-027 = compound: O=C(Nc1cc(C(F)(F)F)cc(C(F)(F)F)c1)c1cc(Cl)ccc1O [IMD-0354] + COc1cccc2cc(-c3nc([C@H]4CC[C@H](C(=O)O)CC4)n4ncnc(N)c34)[nH]c12 [OSI-027] (partner 0.5 µM)
Method in brief: as §1

IMD-0354 + Pictilisib = compound: O=C(Nc1cc(C(F)(F)F)cc(C(F)(F)F)c1)c1cc(Cl)ccc1O [IMD-0354] + CS(=O)(=O)N1CCN(Cc2cc3nc(-c4cccc5[nH]ncc45)nc(N4CCOCC4)c3s2)CC1 [Pictilisib] (partner 1 µM)
Method in brief: as §1

UMC-11
relative viability (CX-5461 + Trametinib; first compound 0.01 µM): 0.685 | relative viability (CX-5461 + Trametinib; first compound 0.03162 µM): 0.769 | relative viability (CX-5461 + Trametinib; first compound 0.1 µM): 0.762 | relative viability (CX-5461 + Trametinib; first compound 0.3162 µM): 0.317 | relative viability (CX-5461 + Trametinib; first compound 1 µM): 0.249 | relative viability (CX-5461 + Dasatinib; first compound 0.01 µM): 0.446 | relative viability (CX-5461 + Dasatinib; first compound 0.03162 µM): 0.519 | relative viability (CX-5461 + Dasatinib; first compound 0.1 µM): 0.364 | relative viability (CX-5461 + Dasatinib; first compound 0.3162 µM): 0.39 | relative viability (CX-5461 + Dasatinib; first compound 1 µM): 0.246 | relative viability (IMD-0354 + OSI-027; first compound 0.04 µM): 0.57 | relative viability (IMD-0354 + OSI-027; first compound 0.1265 µM): 0.469 | relative viability (IMD-0354 + OSI-027; first compound 0.4 µM): 0.3 | relative viability (IMD-0354 + OSI-027; first compound 1.265 µM): 0.215 | relative viability (IMD-0354 + OSI-027; first compound 4 µM): 0.205 | relative viability (IMD-0354 + Pictilisib; first compound 0.04 µM): 0.939 | relative viability (IMD-0354 + Pictilisib; first compound 0.1265 µM): 0.868 | relative viability (IMD-0354 + Pictilisib; first compound 0.4 µM): 0.542 | relative viability (IMD-0354 + Pictilisib; first compound 1.265 µM): 0.187 | relative viability (IMD-0354 + Pictilisib; first compound 4 µM): 0.223
